The nature of experiment [1]: A cytotoxicity screen of small molecule inhibitors of the PhoP region in Salmonella typhi identified in the primary screen. [Related pubchem assays: 1850, 1864, 1985 ]. In kind it is functional.
The target of experiment [2] is Prothrombin (Homo sapiens, UniProt P00734). Kind of experiment: Thrombin 1536 HTS Dose Response Confirmation. [Related pubchem assays: 1046 (Thrombin 1536 HTS; hits were confirmed in this assay)]. In kind it is functional.
In experiment [3] the target is T1, Voltage-gated N-type calcium channel alpha-1B subunit/Amyloid beta A4 precursor protein-binding family A member 1 (Homo sapiens, UniProt Q00975+Q02410). In kind it is protein assay.
Experiment [4] deals with T1, Voltage-gated N-type calcium channel alpha-1B subunit/Amyloid beta A4 precursor protein-binding family A member 1. In kind it is protein assay. This is another data set of the same source.
A short description of experiment [5]: cytotoxicity toward DRD oncogenic fibroblasts, dose response, cell-based, non-viral oncogenic, luminescence (AID 1934). In kind it is functional. The following applies: Homo sapiens.
The test system of experiment [6] is BJ. Kind of experiment: cytotoxicity toward BJ-TERT-LT-ST fibroblasts, dose response, cell-based, RAS-independent, luminescence (AID 1935).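 Further: BJ fibroblasts immortalized with TERT plus LT and ST oncogenes.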 In kind it is functional. The note with it: Homo sapiens.
Experiment [7] deals with BJ. Kind of experiment: cells. In kind it is functional, cell-based. The following applies: Homo sapiens.
The test system of experiment [8] is BJ. Kind of experiment: cytotoxicity toward BJ-TERT fibroblasts, dose response, cell-based, RAS-independent, luminescence (AID 1933). The following applies: Homo sapiens. In kind it is functional.
Experiment [9] concerns the target Peroxisome proliferator-activated receptor gamma/Nuclear receptor coactivator 3 (Homo sapiens, UniProt P37231). In kind it is functional.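 Further: agonist potency for raising coactivator recruitment to the receptor.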
Experiment [10] concerns the target Peroxisome proliferator-activated receptor gamma/Nuclear receptor coactivator 2 (Homo sapiens, UniProt P37231). In kind it is functional.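 Further: agonist potency for raising coactivator recruitment to the receptor.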
Experiment [11] addresses Peroxisome proliferator-activated receptor gamma/Nuclear receptor coactivator 1 (Homo sapiens, UniProt P37231). In kind it is functional.
The target in experiment [12] is Ephrin type-A receptor 4 (Mus musculus, UniProt Q03137). Kind of experiment: inhibitors of EphA4 binding to KYL peptide, primary screen, biochemical, colorimetric, mouse EphA4 (AID 689). In kind it is functional.
Ephrin type-A receptor 4, sequence (Q03137 whole entry): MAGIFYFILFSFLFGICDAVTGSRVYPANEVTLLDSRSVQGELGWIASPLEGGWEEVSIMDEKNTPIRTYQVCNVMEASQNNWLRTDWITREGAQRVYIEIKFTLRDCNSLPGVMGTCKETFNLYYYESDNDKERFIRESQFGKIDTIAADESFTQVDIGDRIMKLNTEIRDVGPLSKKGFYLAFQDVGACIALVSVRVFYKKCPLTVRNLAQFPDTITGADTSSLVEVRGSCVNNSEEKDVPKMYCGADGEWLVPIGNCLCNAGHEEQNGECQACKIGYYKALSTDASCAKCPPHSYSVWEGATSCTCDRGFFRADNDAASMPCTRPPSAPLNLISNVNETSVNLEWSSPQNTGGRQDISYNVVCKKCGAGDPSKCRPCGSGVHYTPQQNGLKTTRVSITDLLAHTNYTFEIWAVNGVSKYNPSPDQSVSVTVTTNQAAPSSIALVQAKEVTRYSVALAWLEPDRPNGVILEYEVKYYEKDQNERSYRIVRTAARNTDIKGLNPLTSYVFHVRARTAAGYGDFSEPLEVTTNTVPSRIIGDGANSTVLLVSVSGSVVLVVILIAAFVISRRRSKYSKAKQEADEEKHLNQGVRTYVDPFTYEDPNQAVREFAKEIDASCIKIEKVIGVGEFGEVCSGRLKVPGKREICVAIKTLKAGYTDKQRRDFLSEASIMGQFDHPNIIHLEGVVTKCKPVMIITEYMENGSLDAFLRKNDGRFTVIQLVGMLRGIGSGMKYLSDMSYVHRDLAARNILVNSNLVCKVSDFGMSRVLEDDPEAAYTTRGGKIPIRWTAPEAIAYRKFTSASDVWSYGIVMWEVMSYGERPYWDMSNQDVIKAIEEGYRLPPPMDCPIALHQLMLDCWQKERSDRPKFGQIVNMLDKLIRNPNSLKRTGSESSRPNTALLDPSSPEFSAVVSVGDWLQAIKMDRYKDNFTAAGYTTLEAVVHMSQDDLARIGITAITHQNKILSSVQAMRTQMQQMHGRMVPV
In experiment [13] the target is DNA dC->dU-editing enzyme APOBEC-3A (Homo sapiens, UniProt P31941). Description: APOBEC3A DNA deaminase inhibitors, dose response, biochemical (AID 504722). In kind it is functional.
DNA dC->dU-editing enzyme APOBEC-3A, sequence (P31941 whole entry): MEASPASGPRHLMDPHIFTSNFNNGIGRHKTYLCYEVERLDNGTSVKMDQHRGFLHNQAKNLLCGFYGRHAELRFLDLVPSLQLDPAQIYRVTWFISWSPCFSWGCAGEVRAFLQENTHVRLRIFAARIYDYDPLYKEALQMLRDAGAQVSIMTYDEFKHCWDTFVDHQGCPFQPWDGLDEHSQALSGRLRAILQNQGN
In experiment [14] the target is Glucose-6-phosphate 1-dehydrogenase (Homo sapiens, UniProt P11413). Kind of experiment: human G6PD enzyme inhibitors, dose response, selectivity assay for P. falciparum G6PD inhibitor project, biochemical, fluorescence (AID 504792). In kind it is functional.
Experiment [15] has as its target DNA dC->dU-editing enzyme APOBEC-3G (Homo sapiens, UniProt Q9HC16). Description: Dose Response confirmation of small molecule APOBEC3G DNA Deaminase Inhibitors via a fluorescence-based single-stranded DNA deaminase assay. [Related pubchem assays (depositor defined):AID493012, AID493028]. In kind it is functional.
Experiment [16] concerns the target T2, Polyadenylate-binding protein 1 (Homo sapiens, UniProt P11940). Description: PABP1 MLLE–PAM2 interaction inhibitors, dose response, miRNA deadenylation inhibitor project, biochemical, fluorescence polarization, Cy5-PAM2 peptide, secondary (AID 602260). The note with it: read-out: IC50_Mean. In kind it is functional.
The target of experiment [17] is T2, Polyadenylate-binding protein 1. Kind of experiment: PABP1 MLLE–PAM2 binding inhibitor potency, dose response, biochemical, fluorescence polarization, FITC-PAM2 peptide (AID 602259). The note with it: read-out: IC50_Mean. In kind it is functional. On the technique in general: Polarisation of emitted light reports the rotation of a fluorescent probe.
Experiment [18] in a line: inhibitors of intracellular T. cruzi replication, confirmation, NIH3T3 host cells, beta-gal luminescence (AID 2044).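 Further: intracellular parasites grown in NIH/3T3 mouse fibroblasts as host cells; luminescent beta-galactosidase reporter signal from transgenic T. cruzi replicating inside host cells; inhibitors lower the luminescence signal.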 In kind it is functional, cell-based.
Experiment [19] concerns INS1. Kind of experiment: beta cell apoptosis inhibitors, cytokine rescue, dose response, luminescence, retest (AID 449756).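 Further: cell death triggered by IL-1 beta plus TNF-alpha plus IFN-gamma mixture; protective hits raise ATP signal compared with cytokine alone wells.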 The following applies: Rattus norvegicus. In kind it is functional, cell-based.
The nature of experiment [20]: cytotoxicity in MIN6 insulinoma cells, dose response, cytotoxicity control, cell-based, mouse insulinoma (AID 2122).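 Further: confirmatory high-throughput counterscreen run to flag cytotoxic compounds; mouse MIN-6 beta cells carrying an insulin promoter eGFP reporter.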 In kind it is functional.
Experiment [21] in a line: insulin promoter down-regulators in MIN6 cells, imaging, high-content screening, mouse beta cells (AID 1628). In kind it is functional.
Experiment [22] can be described thus: cytotoxicity toward NIH3T3 fibroblasts, dose response, counter-screen, cell-based, ATP luminescence, mouse fibroblasts (AID 2010).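 Further: cells exposed to compound for about 90 hours before reading.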 In kind it is functional. (The purpose of a counterscreen is to sort out artefacts and off-target activity.)
A short description of experiment [23]: Luminescence Cell-Based Dose Retest to Confirm Inhibitors of Cancer Stem Cells. [Related pubchem assays (depositor defined):AID2717, AID2721]. In kind it is functional. The note with it: Homo sapiens.
Experiment [24] is described as follows: LGR2 antagonists, dose response, cell-based, HEK293, CRE-luciferase reporter, cherry pick, set 2 (AID 743343).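 Further: transfected cells were stimulated with diluted bursicon conditioned medium after compound addition.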 In kind it is functional.
Experiment [25] is described as follows: MC4R antagonists, dose response, counter-screen for LGR2 antagonist project, cell-based, plate reader, cherry pick (AID 743444).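 Further: transfected HEK 293 cells stimulated with alpha-MSH peptide; potency of inhibitors of the alpha-MSH evoked signal.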 In kind it is functional.
Experiment [26] addresses T3, Microphthalmia-associated transcription factor (Homo sapiens, UniProt O75030).
T3 sequence (O75030 whole entry): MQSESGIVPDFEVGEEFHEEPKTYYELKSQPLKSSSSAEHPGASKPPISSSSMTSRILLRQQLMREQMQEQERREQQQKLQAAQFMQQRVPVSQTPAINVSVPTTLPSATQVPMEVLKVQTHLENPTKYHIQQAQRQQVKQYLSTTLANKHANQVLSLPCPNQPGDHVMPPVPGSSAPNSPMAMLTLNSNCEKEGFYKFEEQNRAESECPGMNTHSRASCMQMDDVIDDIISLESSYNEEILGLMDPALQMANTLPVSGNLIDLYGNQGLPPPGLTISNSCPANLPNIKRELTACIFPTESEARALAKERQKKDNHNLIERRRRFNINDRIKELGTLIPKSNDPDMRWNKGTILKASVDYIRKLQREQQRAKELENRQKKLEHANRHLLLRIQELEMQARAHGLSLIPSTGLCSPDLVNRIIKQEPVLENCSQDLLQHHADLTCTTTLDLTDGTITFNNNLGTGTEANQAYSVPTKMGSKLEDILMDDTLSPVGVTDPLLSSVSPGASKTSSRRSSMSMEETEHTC
Kind of experiment: TRPM1 promoter luciferase signal decrease, dose response, MITF inhibitor project, cell-based, SK-MEL-5, cherry-picked, set 3 (AID 493073).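 Further: SK-MEL-5 melanoma cells with luciferase driven by the MITF target TRPM1 promoter.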 In kind it is functional.

Experiment [27] is described as follows: inhibitors of firefly luciferase expression or activity, dose response, H4 neuroglioma cells, luminescence (AID 1990). In kind it is functional, cell-based.
Experiment [28] in a line: inhibitors of SNCA 5'UTR-driven reporter translation, confirmation, H4 neuroglioma cells, luminescence (AID 1988). In kind it is functional, cell-based.
Experiment [29] in a line: HepG2 cell cytotoxicity, dose response, cytotoxicity control, plate reader, cherry-pick, antagonist series (AID 743416). In kind it is functional, cell-based.
Experiment [30] in a line: A549 cell cytotoxicity, dose response, cytotoxicity control, plate reader, cherry-pick, antagonist series (AID 743412). In kind it is functional, cell-based.
Experiment [31] is described as follows: HEK293 cell cytotoxicity, dose response, cytotoxicity control, plate reader, cherry-picked samples (AID 743446). In kind it is functional, cell-based.
The nature of experiment [32]: Luminescence Cell-Based Dose Response HTS to Identify Inhibitors of 5'UTR Stem-Loop Driven Prion Protein mRNA Translation in H4 Neuroglioblastoma Cells. [Related pubchem assays: 1827 (Project Summary), 1813 (Primary HTS)]. In kind it is functional.
In experiment [33] the target is T4, Ubiquitin-conjugating enzyme E2 N (Homo sapiens, UniProt P61088).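 Further: Dose-response confirmation in a TR-FRET assay detecting UBC13-driven polyubiquitin chain formation, inhibition measured.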
T4 sequence (P61088 whole entry): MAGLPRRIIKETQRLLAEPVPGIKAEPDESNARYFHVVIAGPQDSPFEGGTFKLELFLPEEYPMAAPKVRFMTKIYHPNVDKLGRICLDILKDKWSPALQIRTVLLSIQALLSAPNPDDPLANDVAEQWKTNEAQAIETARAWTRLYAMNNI
In kind it is functional.

Calls of active or inactive are those of the source.

Peroxisome proliferator-activated receptor gamma/Nuclear receptor coactivator 3, sequence (P37231 whole entry): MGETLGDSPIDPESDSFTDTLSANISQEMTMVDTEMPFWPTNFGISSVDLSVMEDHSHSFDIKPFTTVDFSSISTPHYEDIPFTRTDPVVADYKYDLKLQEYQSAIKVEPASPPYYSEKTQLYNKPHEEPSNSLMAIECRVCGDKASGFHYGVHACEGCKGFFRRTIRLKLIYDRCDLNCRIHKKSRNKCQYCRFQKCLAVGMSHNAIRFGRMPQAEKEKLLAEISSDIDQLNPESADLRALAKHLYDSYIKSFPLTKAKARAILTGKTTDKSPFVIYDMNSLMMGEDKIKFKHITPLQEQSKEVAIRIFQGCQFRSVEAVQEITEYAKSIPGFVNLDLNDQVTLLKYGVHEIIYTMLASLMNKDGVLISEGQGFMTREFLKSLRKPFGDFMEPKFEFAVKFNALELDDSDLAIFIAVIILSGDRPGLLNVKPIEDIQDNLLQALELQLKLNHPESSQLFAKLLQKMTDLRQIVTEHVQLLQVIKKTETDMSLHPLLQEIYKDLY
Peroxisome proliferator-activated receptor gamma/Nuclear receptor coactivator 3, sequence (Q9Y6Q9 whole entry, further chain): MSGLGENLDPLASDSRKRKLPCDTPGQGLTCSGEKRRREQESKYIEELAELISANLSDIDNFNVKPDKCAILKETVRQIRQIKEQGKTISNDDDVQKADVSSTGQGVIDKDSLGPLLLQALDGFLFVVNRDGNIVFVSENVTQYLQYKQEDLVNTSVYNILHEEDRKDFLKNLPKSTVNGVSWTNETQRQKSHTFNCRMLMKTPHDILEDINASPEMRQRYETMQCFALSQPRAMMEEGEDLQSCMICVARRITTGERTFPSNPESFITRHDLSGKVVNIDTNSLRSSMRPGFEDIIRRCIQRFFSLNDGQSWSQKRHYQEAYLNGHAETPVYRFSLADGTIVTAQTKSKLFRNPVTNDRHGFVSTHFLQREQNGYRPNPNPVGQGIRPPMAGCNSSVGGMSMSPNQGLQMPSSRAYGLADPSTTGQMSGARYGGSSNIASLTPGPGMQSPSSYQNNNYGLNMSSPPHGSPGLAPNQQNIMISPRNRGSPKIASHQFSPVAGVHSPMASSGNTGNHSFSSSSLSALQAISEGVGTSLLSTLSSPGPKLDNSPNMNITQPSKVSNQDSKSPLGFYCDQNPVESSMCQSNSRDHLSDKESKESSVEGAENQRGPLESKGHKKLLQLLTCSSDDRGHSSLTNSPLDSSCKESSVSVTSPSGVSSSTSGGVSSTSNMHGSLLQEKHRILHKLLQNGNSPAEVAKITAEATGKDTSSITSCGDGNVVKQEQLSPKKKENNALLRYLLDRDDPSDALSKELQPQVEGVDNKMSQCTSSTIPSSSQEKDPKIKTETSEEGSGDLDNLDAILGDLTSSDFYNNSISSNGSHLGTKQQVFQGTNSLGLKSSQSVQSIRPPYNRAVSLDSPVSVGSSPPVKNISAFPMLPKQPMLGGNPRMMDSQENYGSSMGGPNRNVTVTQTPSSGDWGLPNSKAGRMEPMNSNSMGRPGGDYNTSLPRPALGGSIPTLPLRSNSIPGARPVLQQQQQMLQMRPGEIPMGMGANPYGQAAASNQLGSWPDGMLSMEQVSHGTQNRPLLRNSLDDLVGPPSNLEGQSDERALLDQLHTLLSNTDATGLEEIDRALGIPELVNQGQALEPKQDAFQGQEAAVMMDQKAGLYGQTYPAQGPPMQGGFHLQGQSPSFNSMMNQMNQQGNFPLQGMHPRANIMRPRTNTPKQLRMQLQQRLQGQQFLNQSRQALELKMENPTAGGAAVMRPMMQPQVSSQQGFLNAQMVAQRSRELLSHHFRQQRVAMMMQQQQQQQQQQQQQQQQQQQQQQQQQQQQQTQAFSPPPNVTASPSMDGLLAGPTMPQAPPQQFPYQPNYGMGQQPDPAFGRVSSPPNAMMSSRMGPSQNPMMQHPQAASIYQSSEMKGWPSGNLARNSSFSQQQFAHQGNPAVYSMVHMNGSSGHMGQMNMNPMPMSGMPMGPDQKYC
Peroxisome proliferator-activated receptor gamma/Nuclear receptor coactivator 2, sequence (P37231 whole entry): as the sequence (P37231 whole entry) above
Peroxisome proliferator-activated receptor gamma/Nuclear receptor coactivator 2, sequence (Q15596 whole entry, further chain): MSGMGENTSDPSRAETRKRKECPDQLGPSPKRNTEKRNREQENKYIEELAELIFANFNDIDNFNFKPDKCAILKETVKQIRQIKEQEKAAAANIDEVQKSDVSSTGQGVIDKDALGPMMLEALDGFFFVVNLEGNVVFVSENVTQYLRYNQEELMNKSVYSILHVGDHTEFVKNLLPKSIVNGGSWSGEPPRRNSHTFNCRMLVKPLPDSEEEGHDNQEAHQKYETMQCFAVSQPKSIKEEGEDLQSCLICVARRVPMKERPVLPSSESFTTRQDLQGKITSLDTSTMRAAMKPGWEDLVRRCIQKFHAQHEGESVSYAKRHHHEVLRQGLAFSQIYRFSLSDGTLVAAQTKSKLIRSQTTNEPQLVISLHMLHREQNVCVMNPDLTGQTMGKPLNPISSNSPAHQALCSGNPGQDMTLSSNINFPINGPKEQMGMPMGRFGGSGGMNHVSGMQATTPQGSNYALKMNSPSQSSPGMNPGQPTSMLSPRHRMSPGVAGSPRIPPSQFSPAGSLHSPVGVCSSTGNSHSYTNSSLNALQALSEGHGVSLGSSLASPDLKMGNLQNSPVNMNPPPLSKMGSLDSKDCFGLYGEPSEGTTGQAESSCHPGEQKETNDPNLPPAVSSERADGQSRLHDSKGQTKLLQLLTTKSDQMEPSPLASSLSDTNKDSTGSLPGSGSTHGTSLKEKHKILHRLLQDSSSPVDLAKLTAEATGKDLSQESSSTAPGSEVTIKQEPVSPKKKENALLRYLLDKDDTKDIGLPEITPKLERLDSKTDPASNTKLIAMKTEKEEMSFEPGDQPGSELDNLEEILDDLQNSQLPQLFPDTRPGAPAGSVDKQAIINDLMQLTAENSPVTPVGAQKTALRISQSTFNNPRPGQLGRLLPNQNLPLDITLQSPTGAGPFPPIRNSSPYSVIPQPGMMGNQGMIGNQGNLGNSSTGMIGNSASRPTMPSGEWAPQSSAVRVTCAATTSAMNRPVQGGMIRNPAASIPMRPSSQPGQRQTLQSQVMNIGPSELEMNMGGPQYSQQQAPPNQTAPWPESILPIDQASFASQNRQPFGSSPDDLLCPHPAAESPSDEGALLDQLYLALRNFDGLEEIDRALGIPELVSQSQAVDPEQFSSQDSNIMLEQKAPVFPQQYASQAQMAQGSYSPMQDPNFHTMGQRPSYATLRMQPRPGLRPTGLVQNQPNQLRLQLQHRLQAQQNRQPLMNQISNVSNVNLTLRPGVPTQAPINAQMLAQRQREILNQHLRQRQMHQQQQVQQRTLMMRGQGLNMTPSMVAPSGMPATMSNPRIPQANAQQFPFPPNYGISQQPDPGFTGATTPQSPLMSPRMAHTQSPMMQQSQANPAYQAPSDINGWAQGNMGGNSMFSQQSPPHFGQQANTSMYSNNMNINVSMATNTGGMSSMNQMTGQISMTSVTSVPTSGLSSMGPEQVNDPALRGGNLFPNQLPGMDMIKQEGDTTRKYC

As for `CCCC1(c2ccccc2)NC(=O)N(CC(=O)Nc2cc(S(=O)(=O)N3CCOCC3)ccc2Cl)C1=O` (centres undefined), the EC50 (commonly the concentration that produces a half-maximal response) in [1] was > 50 µM (active).
Regarding `Nc1nc(-c2ccccc2)nn1C(=O)Cc1ccccc1`, in [2], the IC50 was 1.51 µM (active).
On to `Cc1ccc2[nH]c(=O)c(C=C3C(=O)NC(=S)NC3=O)cc2c1`, for which the IC50 in experiment [3] was 9.32 µM (active); in [4], 42.1 µM (active).
With `COc1cccc2cc(-c3csc(NC(=O)CCC(=O)NCCCN4CCC(C)CC4)n3)c(=O)oc12`, the EC50 in [5] was 11.5 µM (active); in experiment [6], > 150 µM (not active); in [7] it was 13.3 µM (active); in [8], 12.7 µM (active).
With `CCOc1ccc(C(=O)Nc2ccc(-c3nc4ccccc4[nH]3)cc2)cc1[N+](=O)[O-]`, the IC50 was 12.2 µM (active) in [3] and > 50 µM (inactive) in experiment [4].
For `COc1ccc(-c2[nH]c3ccccc3c2SCCNC(=O)c2ccccc2)cc1`, the figures for the concentration giving a half-maximal response (EC50) in experiment [9], in [10] and in [11] were < 79.4 µM (not active), 33.6 µM (not active) and 39.5 µM (not active), respectively.
As to `CCN(CC)C(=O)CSc1nc2cc(OC)c(OC)cc2c(=O)n1Cc1ccc(Cl)cc1`, in [12], the IC50 is > 100 µM (not active).
For the compound `COc1ccc(CC(=O)n2nc(-c3cccnc3)nc2N)cc1`, the IC50 in experiment [2] is 0.259 µM (active).
On to `COc1cccc(-c2ccc(SCc3ccccn3)nn2)c1`, for which the EC50 in [1] is > 50 µM (active).
For the compound `Cc1cc(C)c2c(=O)n(CC(=O)Nc3cccc(F)c3)sc2n1`, the IC50 was > 100 µM (inactive) in [13]; 22.1 µM (inactive) in experiment [14]; 8.62 µM (active) in experiment [3]; 4.35 µM (active) in [15]; > 50 µM (inactive) in [4].
For the compound `N#CC1=C(N)N=C(S)C(C(N)=O)C1c1ccc([N+](=O)[O-])cc1` (centres undefined), the IC50 in experiment [16] is > 66 µM (inactive); in [17] it was > 66 µM (inactive); in experiment [3], 5.63 µM (active); in [4], > 50 µM (inactive).
For `COc1cc(OC)cc(C(=O)Nc2ccc(NC(=O)c3ccco3)c(C)c2)c1`, the EC50 in experiment [5] is 9.93 µM (active); in [6], 19.5 µM (active); in experiment [7], 10.1 µM (active); in [8], 15.2 µM (active).
Consider `NS(=O)(=O)c1ccc(N/N=C/c2cn(-c3ccccc3)nc2-c2cccs2)c([N+](=O)[O-])c1`, for which the EC50 in experiment [18] is 0.846 µM (active); in [5] it was 8.22 µM (active); in experiment [6], 6.17 µM (inconclusive); in experiment [7], 19.4 µM (active); in experiment [8] it was 4.24 µM (active); in experiment [22], 12.4 µM (active). The values for the AC50 in experiment [19] and in experiment [23] were 4.07 µM (active) and 1.39 µM (active), respectively. For the same compound, the IC50 is 4.7 µM (active) in [20] and 1.43 µM (active) in [21].
`COc1ccc(OC)c(NC(=O)CSc2nnc(N)s2)c1`: the EC50 in [9], in experiment [10] and in experiment [11] was > 79.4 µM (not active) throughout.
Turning to `O=c1c2ccccc2cnn1CCOc1ccccc1`, the half-maximal activity concentration (AC50) (usually the concentration at which the activity in the assay is half-maximal) in experiment [24] is 2.52 µM (active); in experiment [25], 2.62 µM (active); in experiment [26], 7.2 µM (active); in [29], > 52 µM (inactive); in experiment [30], 45.5 µM (active); in experiment [31] it was 48.8 µM (active). The EC50 in experiment [27] was 4.07 µM (active); in [28] it was 1.97 µM (active); in experiment [32], 0.392 µM (active).
As to `COC(=O)Cc1ccc(NC(S)=NCc2ccc(Cl)cc2)cc1`, the EC50 in experiment [1] was > 50 µM (active).
With `O=C(COC(=O)CCOc1ccccc1)Nc1ccc(Cl)cn1`, the IC50 in [2] was 30.8 µM (active).
As to `CC1=N/C(=C\c2ccc([N+](=O)[O-])cc2)C(=O)N1c1cc(Cl)ccc1C`, the IC50 in experiment [12] was 3.45 µM (active).
As to `CCCCCCNC(=O)N[C@@H](C(=O)NCCC[C@H]1CN2C(=NC[C@@H]2Cc2ccccc2)N1CCc1cccc(OC)c1)C(C)C`, in experiment [33], the IC50 is > 20 µM (inactive).
For the compound `Oc1nc2ccc(Cl)cc2c(-c2ccccc2)c1N1CCOCC1`, in experiment [2], the IC50 was > 50 µM (not active).
Take `CCc1ccc2c(c1)cc(CN(C(=S)Nc1ccc(Cl)cc1)C1CC1)c1nnnn12`: the EC50 in [9] was 11.6 µM (not active); in experiment [10], 8.9 µM (active); in experiment [11], 11.5 µM (not active).
As to `O=C(Nc1ccncc1)Nc1ccc(Cl)cc1`, in [1], the EC50 was > 50 µM (active).
As for `CCn1cc(/C=C/C(=O)Nc2ccn(Cc3c(F)c(F)c(F)c(F)c3F)n2)cn1`, the 50% effective concentration (EC50) in experiment [9], in experiment [10] and in experiment [11] was > 79.4 µM (not active) in each case.
With `Cc1nc(N)sc1C(=O)N/N=C/c1ccco1`, the IC50 in experiment [33] is > 20 µM (inactive).

The values above are taken from ChEMBL document CHEMBL1201862, “PubChem BioAssay data set” (2004).
